In patent EP4702986A1, “POLYPEPTIDE AND USE THEREOF” (Biocells (Beijing) Biotech Co., Ltd., priority 2023, dated 2024):
Numbered stars: 1 amine (or outer) side, 2 acyl side, 3 side chain; on linkers, the order of the positions; unused ones are H or OH. Bridge positions count the residues as written; N and C are the ends. Square brackets hold non-standard residues; d marks the D form. Peptide text beside a SMILES is read from it. * marks the point of attachment. ξ: configuration not given here. Feruloyl = COc1cc(/C=C/C(=O)*)ccc1O; ξ2Nal = NC(Cc1ccc2ccccc2c1)C(=O)O; Fumaroyl = O=C(O)/C=C/C(=O)*; Suc = O=C(CCC(=O)[*:2])[*:1]

Key:
[1] = Determination of half-lives of polypeptides (plasma, LC-MS)
human ETA receptor = molecular target: T1, human ETA receptor (Homo sapiens, UniProt P25101); assay: Selectivity of polypeptides on human ETA receptor (IP-One Gq kit, % of positive control ET1); type: cell-based; settings: read-out: hETAR agonist activity, percentage of activity relative to ET1
T1 construct: expressed in transfected cells; host or cells: 293T-17 cells, transient transfection
T1 sequence (P25101 21-427): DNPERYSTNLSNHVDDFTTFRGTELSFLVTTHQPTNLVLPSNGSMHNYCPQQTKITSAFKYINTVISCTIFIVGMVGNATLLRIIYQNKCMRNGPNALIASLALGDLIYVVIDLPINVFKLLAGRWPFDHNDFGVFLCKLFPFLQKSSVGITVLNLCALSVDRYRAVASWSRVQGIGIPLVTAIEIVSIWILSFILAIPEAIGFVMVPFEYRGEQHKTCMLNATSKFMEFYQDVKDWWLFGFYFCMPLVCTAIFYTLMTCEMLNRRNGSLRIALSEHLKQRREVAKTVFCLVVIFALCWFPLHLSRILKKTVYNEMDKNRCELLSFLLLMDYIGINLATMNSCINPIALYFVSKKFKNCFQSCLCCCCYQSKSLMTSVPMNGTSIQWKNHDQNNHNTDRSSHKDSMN
Procedure, shortened: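 293T-17 cells transiently transfected with human ETA receptor (48 h), 30,000 cells/well exposed to polypeptides for 1 h at 37°C; IP1 accumulation by HTRF (665/620 nm ratio). Activity given as % of ET1 at the same concentration after PBS-control subtraction.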

rat model of pMACO [2] = assay: Foot fault test in rat model of pMACO; type: in vivo, SD rats
From the text: (§1) Male SD rats weighing 280-300 g were used and acclimated for at least 3 days. Focal cerebral ischemia was induced by middle cerebral artery occlusion with a suture method under isoflurane anesthesia. The animals were placed in a secure supine position, and a midline incision was made to expose the right common carotid artery, external carotid artery, and internal carotid artery. A 4.0 monofilament nylon suture was advanced from the external carotid artery toward the internal carotid artery lumen until resistance was felt ( ~ 20 mm), indicating middle cerebral artery occlusion. The nylon filament was allowed to stay in place to create a permanent model of focal cerebral ischemia. Successfully modeled rats were randomly assigned to four groups: a solvent (normal saline) group (n=10), a 7 µg/Kg BX-34 group (n=10), a 5 µg/Kg BX-48 group (n=10), and a 5 µg/Kg IRL1620 group (n=10). Each group was administered once at 2 hours, 4 hours, and 6 hours, respectively, after modeling, for a total of three administrations. Grip strength was measured before administration and at 24 hours and on D3 and D7 after administration. A rotarod test and a foot fault test were performed before administration and at 24 hours and day 7 after administration. During the rotarod test, time and distance were recorded, and ratios of the measurement at 24 hours and the measurement at D7 to the pretest measurement were used as analysis indicators. The specific method for the foot fault test was as follows. The rats were placed on an elevated grid floor (29×29 cm, grid opening: 3 cm^2) for 2 minutes, and the number of foot faults (when a forelimb fell through the grid) and the total steps were recorded. % Foot fault = (the number of forelimb faults/the total number of forelimb steps) × 100.

rat model of pMACO [3] = assay: Grip strength test in rat model of pMACO; type: in vivo, SD rats; settings: pMACO rats; 3 administrations (2, 4, 6 h after modeling); IRL1620 5µg/Kg, BX34 7µg/Kg, BX48 5µg/Kg
rat model of pMACO [4] = assay: Foot fault test in rat model of pMACO; type: in vivo, SD rats; settings: rat pMCAO; D7 after administration; comparison in words
rat model of pMACO [5] = assay: Rotarod test in rat model of pMACO; type: in vivo, SD rats; settings: IRL1620 5 µg/Kg, BX34 7 µg/Kg, BX48 5 µg/Kg, administered 3 times (2, 4, 6 hours after modeling), n=10
From the text: as §1

human ETB receptor = molecular target: T2, human ETB receptor (Homo sapiens, UniProt P24530); assay: Determination of EC50 of polypeptides against human ETB receptor (IP-One Gq kit); type: cell-based; settings: 293T-17 cells transfected with PCDNA3.1-hETB; read-out: hETBR agonist activity EC50/nM
T2 construct: expressed in transfected cells; host or cells: 293T-17 cells, transient transfection
T2 sequence (P24530 27-442): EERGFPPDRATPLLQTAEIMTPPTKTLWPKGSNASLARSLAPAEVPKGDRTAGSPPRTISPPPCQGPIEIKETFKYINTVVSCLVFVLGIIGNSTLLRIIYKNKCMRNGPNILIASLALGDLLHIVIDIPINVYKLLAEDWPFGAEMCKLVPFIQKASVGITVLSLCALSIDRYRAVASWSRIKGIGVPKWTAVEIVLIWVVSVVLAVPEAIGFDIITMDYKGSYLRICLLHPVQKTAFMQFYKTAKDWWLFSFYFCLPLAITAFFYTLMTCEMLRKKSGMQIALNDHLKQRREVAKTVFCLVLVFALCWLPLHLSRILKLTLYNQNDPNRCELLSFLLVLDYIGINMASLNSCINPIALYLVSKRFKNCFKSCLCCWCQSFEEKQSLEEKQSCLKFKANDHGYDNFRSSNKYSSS
Procedure: 293T-17 cells were seeded at a density of 650,000 cells per well in a 6-well plate and cultured overnight in an incubator at 37°C and 5% CO2. Afterward, the cells were transfected with an expression vector, PCDNA3.1-hETB which contained a human ETB receptor gene, at a plasmid concentration of 2.5 µg per well. The cells were further cultured for 48 hours, and green fluorescence expression was observed under a fluorescence microscope. The cells were then digested with trypsin and counted. The activity of compounds on the human ETB receptor was determined with the IP-One Gq kit from Cisbio Bioassays. The cells were suspended in Stim Buffer provided in the kit and the cell suspension was added to a 96-well detection plate at 7 µL cell suspension (containing 30,000 cells) per well. The polypeptides to be tested (prepared according to the Preparation Example of the invention) were diluted in Stim B to obtain a gradient of 11 concentration points. For each concentration point, the polypeptides to be tested were dissolved in Stim B to be at a concentration of 2×, and added at 7 µL to the test cells, while 7 µL of PBS solution was added to the cells in the negative control wells. The plate was sealed and incubated at 37°C for 1 hour in a cell culture incubator. Detection wells, positive control wells containing human endothelin ET1 (ET1: […] (C1-C15,C3-C11)), and PBS control wells were each added with 3 µL of IP1 d2 working solution and 3 µL of IP1 Tb cryptotate Antibody working solution. The plate was then sealed and incubated in the dark at room temperature (25°C±5°C) for 1 hour. The plate seal was removed, and the […] at 665 nm and 620 nm was measured with an ID5 microplate reader. The ratio of the acceptor emission signal to the donor emission signal, i.e., (signal at 665 nm/signal at 620 nm)×10^4, was calculated for each well. With F representing the average value of values of signal at 665 nm/signal at 620 nm for the test samples at various concentrations, a scatterplot was plotted, where the abscissa represented the F value, and the ordinate represented the logarithmic value of the peptide concentration. A curve was fitted with an appropriate method to calculate EC50 values of the polypeptides against the human ETB receptor. Another method was provided for fitting a curve where activation rate of the test polypeptides at each concentration relative to the positive control sample human endothelin ET1 was calculated first with the method in Example 1, and a scatterplot was plotted, where the abscissa represented the activation rate, and the ordinate represented the logarithmic value of the polypeptide concentration. A curve was fitted with an appropriate method to calculate the EC50 values of the polypeptides against the human ETB receptor.

| Compound | half-life ([1]; C57 BL/6, mouse, plasma, iv) | AUClast 0-30 min ([1]; C57 BL/6 mice, i.v., dosage per compound 0.48, 0.96 or 1 mpk) | activation at 10 µM (human ETA receptor; @10µM) | activation at 100 µM (human ETA receptor; @100µM) | percentages of foot faults compared with the saline group and the IRL1620 group (rat model of pMACO [2]; pMACO rats, BX-34 7 µg/Kg, BX-48 5 µg/Kg, three administrations) | Foot fault Analysis Mean of 7D (rat model of pMACO [2]; percentage of foot faults at 7D, IRL1620 5 µg/Kg, BX34 7 µg/Kg, BX48 5 µg/Kg, administered 3 times (2, 4, 6 hours after modeling)) | Foot fault Analysis Mean of 24h (rat model of pMACO [2]; percentage of foot faults at 24h, IRL1620 5 µg/Kg, BX34 7 µg/Kg, BX48 5 µg/Kg, administered 3 times (2, 4, 6 hours after modeling)) | Foot fault Analysis Mean of Pretest (rat model of pMACO [2]; percentage of foot faults, pretest (baseline before administration), groups IRL1620 5 µg/Kg, BX34 7 µg/Kg, BX48 5 µg/Kg, 3 times) | Grip Strength Test 3D/pre (rat model of pMACO [3]) | Grip Strength Test 7D/pre (rat model of pMACO [3]) | Grip Strength Test 24h/pre (rat model of pMACO [3]) | percentages of foot faults (rat model of pMACO [4]) | Rotarod Test 7D/pretest (%) Distance, m (rat model of pMACO [5]; 7D relative to pretest) | Rotarod Test 7D/pretest (%) Time, s (rat model of pMACO [5]; 7D relative to pretest) | Rotarod Test 7D/pretest (%) Velocity (rat model of pMACO [5]; 7D relative to pretest) | Rotarod Test 24h/pretest (%) Distance, m (rat model of pMACO [5]; 24h relative to pretest) | Rotarod Test 24h/pretest (%) Time, s (rat model of pMACO [5]; 24h relative to pretest) | Rotarod Test 24h/pretest (%) Velocity (rat model of pMACO [5]; 24h relative to pretest) | EC50 (human ETB receptor) |
| --- | --- | --- | --- | --- | --- | --- | --- | --- | --- | --- | --- | --- | --- | --- | --- | --- | --- | --- | --- |
| CC[C@H](C)[C@H](NC(=O)[C@H](CC(=O)O)NC(=O)[C@H](CC(C)C)NC(=O)[C@H](Cc1c[nH]cn1)NC(=O)[C@H](C)NC(=O)[C@H](Cc1ccccc1)NC(=O)[C@H](Cc1ccc(O)cc1)NC(=O)[C@@H]1CCCCNC(=O)CC[C@H](NC(=O)[C@H](CC(=O)O)NC(=O)CCC(=O)O)C(=O)N[C@@H](CCC(=O)O)C(=O)N[C@@H](C)C(=O)N1)C(=O)N[C@H](C(=O)N[C@@H](Cc1c[nH]c2ccccc12)C(=O)O)[C@@H](C)CC [BX-48] (Suc-DEEAKYFAHLDIIW-OH; lactam 2-5) | 3.9 min | 0.757 µg·h/mL | 4.45% | 9.37% | lower | 2.24%±3.1% | 10.89%±10.53% | 1.11%±0.95% | 60% ±7% | 66% ±22% | 47% ±23% | lower than that of the saline group and the IRL1620 group | 64.97%±19.43% | 81.64%±10.87% | 76.52%±13.55% | 16.15%±22.62% | 23.79%±27.04% | 47.16%±30.9A % |  |
| CC[C@H](C)[C@H](NC(=O)[C@H](CC(=O)O)NC(=O)[C@H](CCCCN)NC(=O)[C@H](Cc1c[nH]cn1)NC(=O)[C@H](C)NC(=O)[C@H](Cc1ccccc1)NC(=O)[C@H](Cc1ccc(O)cc1)NC(=O)[C@@H](NC(=O)[C@H](C)NC(=O)[C@H](CCC(=O)O)NC(=O)[C@H](CCC(=O)O)NC(=O)[C@H](CC(=O)O)NC(=O)/C=C/C(=O)O)C(C)C)C(=O)N[C@H](C(=O)NC(Cc1ccc2ccccc2c1)C(=O)O)[C@@H](C)CC (some centres unmarked) [BX-13-2] (Fumaroyl-DEEAVYFAHKDII[ξ2Nal]-OH; C-terminus assumed) |  |  |  |  |  |  |  |  |  |  |  |  |  |  |  |  |  |  | 11.8 nM |
| CC[C@H](C)[C@H](NC(=O)[C@H](CC(=O)O)NC(=O)[C@H](CCCCN)NC(=O)[C@H](Cc1c[nH]cn1)NC(=O)[C@H](C)NC(=O)[C@H](Cc1ccccc1)NC(=O)[C@H](Cc1ccc(O)cc1)NC(=O)[C@@H](NC(=O)[C@H](C)NC(=O)[C@H](CCC(=O)O)NC(=O)[C@H](CCC(=O)O)NC(=O)[C@H](CC(=O)O)NC(=O)/C=C/c1ccc(O)c(OC)c1)C(C)C)C(=O)N[C@H](C(=O)N[C@@H](Cc1c[nH]c2ccccc12)C(=O)O)[C@@H](C)CC [BX-15] (Feruloyl-DEEAVYFAHKDIIW-OH; C-terminus assumed) |  |  |  |  |  |  |  |  |  |  |  |  |  |  |  |  |  |  | 41.1 nM |
